The results in this text go back to publication PMC7504051, “Ilimaquinone Induces the Apoptotic Cell Death of Cancer Cells by Reducing Pyruvate Dehydrogenase Kinase 1 Activity” (International Journal of Molecular Sciences, 2020).

For experiment [1], the target named is T1, pyruvate dehydrogenase kinase 1 (PDK1) (Homo sapiens, UniProt Q15118).
T1 construct: His-tagged PDK1
Description: radiolabelled (α-32P)ATP binding to bead-bound purified PDK1, scintillation counting, unlabelled ATP as competitor.

The target of experiment [2] is T1, pyruvate dehydrogenase kinase 1 (PDK1). Description: isothermal titration calorimetry (MicroCal AutoITC200); supported by (α-32P)ATP displacement from purified PDK1. The format is binding.

T1 sequence (Q15118 29-436): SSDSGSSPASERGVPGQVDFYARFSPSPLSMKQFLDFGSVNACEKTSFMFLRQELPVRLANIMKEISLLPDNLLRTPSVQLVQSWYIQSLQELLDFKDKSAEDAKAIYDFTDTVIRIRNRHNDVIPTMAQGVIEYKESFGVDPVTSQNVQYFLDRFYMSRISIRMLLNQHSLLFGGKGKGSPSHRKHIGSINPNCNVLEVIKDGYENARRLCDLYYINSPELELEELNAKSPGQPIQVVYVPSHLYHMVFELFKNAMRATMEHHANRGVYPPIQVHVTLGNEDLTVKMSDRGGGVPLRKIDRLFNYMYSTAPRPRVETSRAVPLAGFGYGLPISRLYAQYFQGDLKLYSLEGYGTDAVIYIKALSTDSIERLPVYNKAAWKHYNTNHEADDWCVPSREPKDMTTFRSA

`Nc1ncnc2c1ncn2[C@@H]1O[C@H](COP(=O)(O)OP(=O)(O)OP(=O)(O)O)[C@@H](O)[C@H]1O` [ATP]: in experiment [1], the “radiolabelled (α-32P)ATP binding to bead-bound purified PDK1, scintillation coun” value is “The binding of ATP to PDK1 in the presence of IQ was determined using α^32-labeled ATP”. The Kd is the free concentration of one partner at which half of the binding sites on the other are occupied at equilibrium, for simple one-to-one binding. A high value points to weaker binding. As to `C=C1CCC[C@H]2[C@](C)(CC3=C(O)C(=O)C=C(OC)C3=O)[C@@H](C)CC[C@]12C` [IQ, ilimaquinone], the Kd in experiment [2] came to 14.6 µM.
